Reference: patent US20260083134A1, “MEANS AND METHODS FOR CONTROLLING PATHOGENS AND PESTS IN PLANTS” (APHEA.BIO NV, priority 2020, published 2026)

Experiments:
Format in all cases: cell-based
Fusarium graminearum = details: compound identified in active HPLC fraction; active when halo diameter superior to 5 mm
Puccinia striiformis = Puccinia striiformis liquid-based screening assay of extract fractions; details: compound identified in active HPLC fraction; active when percentage of inhibition superior to 50%
Zymoseptoria tritici = system: Zymoseptoria tritici

| Compound | Active against: (Fusarium graminearum) | Active against: (Puccinia striiformis) | Active against: (Zymoseptoria tritici) |
| --- | --- | --- | --- |
| CCCCCCCCCCCCCC(=O)NCCC[N+](C)(C)CC(=O)[O-] [N-Myristylamidopropyl-N,N-dimethylbetaine] | F. graminearum | P. striiformis | Z. tritici |
| C[C@@H]1C/C=C/C=C/C=C/C=C/[C@H](O[C@@H]2O[C@H](C)[C@@H](O)[C@H](N)[C@@H]2O)C[C@@H]2O[C@](O)(C[C@@H](O)C[C@H]3O[C@@H]3/C=C/C(=O)O1)C[C@H](O)[C@H]2C(=O)O [Pimaricin/Natamycin, Pimaricin, reference compound] | F. graminearum | P. striiformis | Z. tritici |
| C=C/C(C)=C/[C@H](C)C(=O)C[C@H](O)CC1CC(=O)NC(=O)C1 [Streptimidone] | F. graminearum | P. striiformis | Z. tritici |
| Albofungin | F. graminearum | P. striiformis | Z. tritici |
| Enactin Ia/Ib | F. graminearum | P. striiformis | Z. tritici |
| Lauramidopropyl betaine | F. graminearum | P. striiformis | Z. tritici |
